In patent US20130165368A1, “ANTIMICROBIAL COMPOUNDS” (priority 2010, published 2013) one finds MIC data, which are given here for three molecules.

Common to all, as to assay type: cell-based
The test system of assay [1] is Candida albicans. As to the kind of experiment: MIC agar dilution, micro-organism 19 (90028). Particulars: Candida albicans 90028. In outline:
(§1)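 Agar dilution in Isosensitest/CCEY agar with egg yolk and lysed horse blood; compounds as aqueous emulsions (myristyl and lauryl alcohol with 1-methyl-2-pyrrolidone and Tween 20). 1 µL spots of 1/15-diluted 0.5 McFarland suspensions, 37 °C aerobic, read at 22 and 48 h; MIC (mmol/L) is lowest concentration giving <10 colonies.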

Assay [2] relates to Enterococcus faecalis. As to the kind of experiment: MIC agar dilution, micro-organism 17 (775). Particulars: Enterococcus faecalis 775. In outline:
as §1

Assay [3] concerns Providencia rettgeri. The assay is described as follows: MIC agar dilution, micro-organism 3 (7475). Particulars: Providencia rettgeri 7475. The gist of the method: as §1
Assay [4] relates to Steptococcus pyogenes. The assay is described as follows: MIC agar dilution, micro-organism 11 (8306). Particulars: Steptococcus pyogenes 8306. In outline: as §1
In assay [5] the test system is Staphylococcus aureus (MRSA). As to the kind of experiment: MIC agar dilution, micro-organism 12 (11939). Particulars: Staphylococcus aureus (MRSA) 11939. The gist of the method:
as §1

Assay [6] has as its system MRSA NCTC 11939. The assay is described as follows: MIC agar dilution, MRSA strain 50. Particulars: Staphylococcus aureus, MRSA strain 50 NCTC 11939. The procedure: (§2) Molar equivalent concentrations were used to allow comparison between compounds of differing molecular mass. Due to weighing difficulties, any compound in solid form was melted in a water bath prior to dilution. To make ten-times strength concentrations, which takes into account agar dilution, 0.0352 mmol of each compound was weighed into plastic universal bottles and 4 mL of sterile distilled water (SDW) was added. To produce a homogenous emulsion the universals were vortexed; once achieved the emulsions were serial diluted by adding 2 mL to 2 mL of SDW.
(§3) For every 100 mL of Isosensitest agar (IST) (CM0471; Oxoid, Basingstoke, England), 3.1 g of the IST powder was added to 100 mL SDW (as per manufacturer's instructions) and sterilised for 15 minutes at 121° C. Once sterilised, the molten agar was cooled to 50° C. in a water-bath. Subsequently 4.8 g of CCEY powder (BC2160; Bioconnections, Wetherby, England), also known as Brazier's medium, was added to 100 mL SDW for every 100 mL of agar needed. This was then sterilised for 15 minutes at 121° C. Once sterilised the molten agar was cooled to 50° C. in a water-bath and 4 mL of egg-yolk emulsion (S2073; TCS Biosciences Ltd, Buckingham, United Kingdom) and 1 mL of lysed defibrinated horse blood (HB035; TCS Biosciences Ltd, Buckingham, United Kingdom) were also added for every 100 mL needed. Horse blood lysis is achieved by dilution to half concentration with SDW; when fully lysed the mixture will turn dark red in colour.
(§4) 18 mL agar was added to each universal and then poured into sterile Petri dishes. This step creates a 1/10 dilution resulting in agar plates of the required strength. Control plates for each set of strains were created by adding 18 mL of agar to 2 mL of SDW.
(§5) Suspensions of each bacterial species were prepared with a density equal to that of a 0.5 McFarland standard using a densitometer. All suspensions were made using sterile distilled water and fresh 18-20 hour cultures. As a 0.5 McFarland standard contains 1.5×10^8 CFU/mL and the multipoint inoculators applies 1 μL spots of liquid, each bacterial suspension was diluted 1/15 (20 μL suspension to 280 μL sterile distilled water).
(§6) Bacterial suspensions were prepared from fresh 18-24 hour cultures as previously described. 1 μL of each strain was inoculated onto all 100 agar plates containing a different chemical concentration and the 2 control plates. This was done using a multipoint inoculator which inoculates 20 strains per plate. All plates were incubated for 22 hours at 37° C. in aerobic conditions.
(§7) Each plate was examined for bacterial growth after 22 and 48 hours, with each being incubated in between examinations. A positive result was recorded as growth of ≧10 colonies. A negative result was recorded as growth of <10 colonies as this is equivalent to 99.9% inhibition. The lowest concentration of chemical that inhibited growth was recorded as the MIC. The results are recorded in Table IV below, where the numbers are quoted in mmol/L.
(§8) Given the positive performance of the ethoxylates of lauryl alcohol in reducing the MIC for a number of the micro-organisms tested, further MIC testing of Laureth-1 [C12E1] through to Laureth-8 [C12E8] was conducted on each of the following: • 10 strains of vancomycin-resistant enterococci (VRE)—listed in Table V below; and • 20 strains of methicillin-resistant Staphylococcus aureus (MRSA)—listed in Table VI.
(§9) The alkanol, alkanol derivatives, agar plates, and inocula were all prepared in the same way as described above.
(§10) The plates were examined in the same manner as described above and the results are recorded in Table VII below, where the numbers are quoted in mmol/L.

The test system of assay [7] is MRSA EMRSA 15 21698/98. As to the kind of experiment: MIC agar dilution, MRSA strain 41. The following applies: Staphylococcus aureus. How it is done:
as §2, §3, §4, §5, §6, §7, §8, §9, §10

Assay [8] relates to MRSA EMRSA 15 1758/98. As to the kind of experiment: MIC agar dilution, MRSA strain 43. The following applies: Staphylococcus aureus. The procedure: as §2, §3, §4, §5, §6, §7, §8, §9, §10
The test system of assay [9] is Enterococcus faecium (VRE) NCTC 12952. As to the kind of experiment: MIC agar dilution, VRE strain 30. How it is done: as §2, §3, §4, §5, §6, §7, §8, §9, §10
Assay [10] deals with MRSA FIN 54518 (E7). As to the kind of experiment: MIC agar dilution, MRSA strain 31. Particulars: Staphylococcus aureus. How it is done:
as §2, §3, §4, §5, §6, §7, §8, §9, §10

Assay [11] deals with Enterococcus faecium (VRE) MB310. As to the kind of experiment: MIC agar dilution, VRE strain 29. The procedure:
as §2, §3, §4, §5, §6, §7, §8, §9, §10

The test system of assay [12] is MRSA FRA 95035. As to the kind of experiment: MIC agar dilution, MRSA strain 37. The following applies: Staphylococcus aureus. The procedure: as §2, §3, §4, §5, §6, §7, §8, §9, §10
Assay [13] relates to MRSA GER 1966/97 (Hanover IIIc). As to the kind of experiment: MIC agar dilution, MRSA strain 36. Particulars: Staphylococcus aureus. How it is done: as §2, §3, §4, §5, §6, §7, §8, §9, §10
The mark [14] stands for this setting: Staphylococcus aureus, MRSA, 22 h, 22 hrs, read-out: MIC.
The mark [15] stands for this setting: Staphylococcus aureus, MRSA, 48 h, 48 hrs, read-out: MIC.

Converted amounts (≈) assume the structure as drawn. Like-named read-outs stand apart in the source and are kept apart here. Some results are limits rather than exact numbers.

Regarding `CCCCCCCCCCCCCCCCO` [C0, 1-Hexadecanol, reference compound], the MIC is more than 880 µM in [1] (22 hrs, read-out: MIC); more than 880 µM in [1] (48 hrs, read-out: MIC); more than 880 µM in assay [2] (22 hrs, read-out: MIC); more than 880 µM in assay [2] (48 hrs, read-out: MIC); 110 µM (≈ 26.7 µg/mL) in assay [3] (22 hrs, read-out: MIC); 110 µM (≈ 26.7 µg/mL) in assay [3] (48 hrs, read-out: MIC). For the same molecule, the MIC in [4] (22 h, 22 hrs, read-out: MIC) is 220 µM (≈ 53.3 µg/mL); in [4] (48 h, 48 hrs, read-out: MIC), 440 µM (≈ 107 µg/mL); in assay [5] (setting [14]) it was more than 880 µM; in [5] (setting [15]), more than 880 µM.

As to `CCCCCCCCCCCCCOCCOCCOCCOCCOCCOCCO` [C13E6, polyoxyethylene (6) tridecyl alcohol], the MIC is more than 880 µM in assay [1] (22 hrs); more than 880 µM in assay [1] (48 hrs); 110 µM (≈ 51.1 µg/mL) in [2] (22 hrs); 110 µM (≈ 51.1 µg/mL) in [2] (48 hrs); more than 880 µM in assay [3] (22 hrs); more than 880 µM in assay [3] (48 hrs). Moreover, the MIC in assay [4] (22 hrs) stood at 55 µM (≈ 25.6 µg/mL); in assay [4] (48 hrs), 55 µM (≈ 25.6 µg/mL); in assay [5] (22 hrs) it was 110 µM (≈ 51.1 µg/mL); in assay [5] (48 hrs), 110 µM (≈ 51.1 µg/mL).

As to `CCCCCCCCCCCCOCCO` [L1, Ethylene Glycol Monododecyl Ether], the MIC amounted to 220 µM (≈ 50.7 µg/mL) in assay [6] (22 hrs); 220 µM (≈ 50.7 µg/mL) in [6] (48 hrs); 220 µM (≈ 50.7 µg/mL) in assay [7] (22 hrs); 220 µM (≈ 50.7 µg/mL) in assay [7] (48 hrs); 440 µM (≈ 101 µg/mL) in assay [1] (22 hrs, read-out: MIC); 440 µM (≈ 101 µg/mL) in assay [1] (48 hrs, read-out: MIC). Also, the MIC stood at 220 µM (≈ 50.7 µg/mL) in assay [8] (22 hrs); 220 µM (≈ 50.7 µg/mL) in assay [8] (48 hrs); 440 µM (≈ 101 µg/mL) in assay [2] (22 hrs, read-out: MIC); 440 µM (≈ 101 µg/mL) in assay [2] (48 hrs, read-out: MIC); 220 µM (≈ 50.7 µg/mL) in [9] (22 hrs); 220 µM (≈ 50.7 µg/mL) in assay [9] (48 hrs). Also, the MIC in assay [10] (22 hrs) was 220 µM (≈ 50.7 µg/mL); in assay [10] (48 hrs), 440 µM (≈ 101 µg/mL); in assay [3] (22 hrs, read-out: MIC), more than 880 µM; in assay [3] (48 hrs, read-out: MIC) it was more than 880 µM; in assay [4] (22 h, 22 hrs, read-out: MIC) it was 220 µM (≈ 50.7 µg/mL); in [4] (48 h, 48 hrs, read-out: MIC), 220 µM (≈ 50.7 µg/mL). Moreover, the MIC in assay [11] (22 hrs) was 440 µM (≈ 101 µg/mL); in assay [11] (48 hrs), 440 µM (≈ 101 µg/mL); in assay [5] (setting [14]) it was 440 µM (≈ 101 µg/mL); in assay [5] (setting [15]), 440 µM (≈ 101 µg/mL); in assay [12] (22 hrs), 220 µM (≈ 50.7 µg/mL); in assay [12] (48 hrs), 220 µM (≈ 50.7 µg/mL). Also, the MIC in [13] (22 hrs) and in assay [13] (48 hrs) was 220 µM (≈ 50.7 µg/mL) each time.
